Molecular target: T1, vitamin D receptor (Sus scrofa, UniProt A3RGC1)
T1 construct: Receptor-containing protein extract is incubated in a test tube with ^3H-calcitriol; from tissue; host or cells: intestines of juvenile pigs (protein extract)
T1 sequence (A3RGC1 1-427): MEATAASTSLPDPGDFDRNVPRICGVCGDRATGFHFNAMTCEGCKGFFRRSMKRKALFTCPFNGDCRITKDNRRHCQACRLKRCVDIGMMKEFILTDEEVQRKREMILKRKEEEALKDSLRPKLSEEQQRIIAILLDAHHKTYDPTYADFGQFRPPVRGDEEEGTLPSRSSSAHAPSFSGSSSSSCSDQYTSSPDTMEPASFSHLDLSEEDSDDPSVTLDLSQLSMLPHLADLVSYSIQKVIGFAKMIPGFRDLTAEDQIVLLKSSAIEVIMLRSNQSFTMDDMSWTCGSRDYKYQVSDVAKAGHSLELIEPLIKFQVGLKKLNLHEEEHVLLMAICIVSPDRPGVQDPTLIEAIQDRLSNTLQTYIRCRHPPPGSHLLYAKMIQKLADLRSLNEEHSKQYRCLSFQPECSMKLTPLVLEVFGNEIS
Experiment: calcitriol-receptor test (competition with 3H-calcitriol)
Format: binding
Details: concentration of test substance / concentration of calcitriol at 50% competition; pig intestine protein extract, 3H-calcitriol 5×10^−10 mol/l
Procedure: It is carried out using a protein extract from the intestines of juvenile pigs. […] Then, the samples are centrifuged at 10,000 g for 5 minutes at 4° C. The supernatant is decanted and measured in a β-counter after 1 hour of equilibration in Picofluor 15™.
It is defined as a quotient of the concentrations of the respective test substance and the reference substance, which are necessary for 50% competition:
KF=Concentration of test substance at 50% competition/Concentration of reference substance at 50% competition

Row | SMILES | KF (competition factor)
1 | C=C1/C(=C\C=C2/CCC[C@]3(C)[C@@H]([C@H](C)/C=C/C(=O)CP(=O)(OC)OC)CC[C@@H]23)C[C@@H](O)C[C@@H]1O [Compound 5, (5Z,7E,22E)-(1S,3R)-(1,3-Dihydroxy-24-oxo-24a-homo-9,10-secochola-5,7,10(19),22-tetraen-24a-yl)phosphonic acid dimethyl ester] | 10
2 | C=C1/C(=C\C=C2/CCC[C@]3(C)[C@@H]([C@H](C)/C=C/C(=O)CP(=O)(OCC)OCC)CC[C@@H]23)C[C@@H](O)C[C@@H]1O [Compound 9, (5Z,7E,22E)-(1S,3R)-(1,3-Dihydroxy-24-oxo-24a-homo-9,10-secochola-5,7,10(19),22-tetraen-24a-yl)phosphonic acid diethyl ester] | 10
3 | C=C1/C(=C\C=C2/CCC[C@]3(C)[C@@H]([C@H](C)/C=C/C(=O)CP(=O)(OC(C)C)OC(C)C)CC[C@@H]23)C[C@@H](O)C[C@@H]1O [Compound 13, (5Z,7E,22E)-(1S,3R)-(1,3-Dihydroxy-24-oxo-24a-homo-9,10-secochola-5,7,10(19),22-tetraen-24a-yl)phosphonic acid bis(1-methylethyl)ester] | 6
4 | C=C1/C(=C\C=C2/CCC[C@]3(C)[C@@H]([C@H](C)/C=C/C(CP(=O)(OCC)OCC)P(=O)(OCC)OCC)CC[C@@H]23)C[C@@H](O)C[C@@H]1O (stereo partly drawn) [Compound 29, (5Z,7E,22E)-(1S,3R,24ξ)-(1,3-Dihydroxy-24a-homo-9,10-secochola-5,7,10(19),22-tetraene-24,24a-diyl)bis[phosphonic acid diethyl ester]] | 10
5 | C=C1C(=CC=C2CCCC3(C)C2CCC3C(C)C=CC(=O)C(C)(C)P(=O)(OCC)OCC)CC(O)CC1O [Compound 53, (5Z,7E,22E)-(1S,3R)-(1,3-Dihydroxy-24-oxo-9,10-secocholesta-5,7,10(19),22-tetraen-25-yl)phosphonic acid diethyl ester] | 12
6 | C=C1/C(=C\C=C2/CCC[C@]3(C)[C@@H]([C@H](C)/C=C/C(=O)C(CC)(CC)P(=O)(OCC)OCC)CC[C@@H]23)C[C@@H](O)C[C@@H]1O [Compound 57, (5Z,7E,22E)-(1S,3R)-(1,3-Dihydroxy-26,27-dimethyl-24-oxo-9,10-secocholesta-5,7,10(19),22-tetraen-25-yl)phosphonic acid diethyl ester] | 16
7 | C=C1C(=CC=C2CCCC3(C)C2CCC3C(C)C=CC(O)P(=O)(OC(C)C)OC(C)C)CC(O)CC1O [Compound 65b, (5Z,7E,22E)-(1S,3R,24R)-(1,3,24-trihydroxy-9,10-secochola-5,7,10(19),22-tetraen-24-yl)phosphonic acid-bis(1-methylethyl)ester] | 10
